# Biological target: T1, rhinovirus 3C protease from HRV serotype-14 (Human rhinovirus 14, UniProt P03303)
# T1 construct: Recombinant rhinovirus 3C proteases; made in house
# Experiment: Inhibition of rhinovirus 3C protease activity (FRET assay), HRV-14
# Assay type: biochemical
# Settings: HRV-14 3C protease; progress curves, enzyme start
# Procedure: Stock solutions (50 mM, in DMSO) of various compounds were prepared; dilutions were in the same solvent. Recombinant rhinovirus 3C proteases (see Birch et al., “Purification of recombinant human rhinovirus 14 3C protease expressed in Escherichia coli,” Protein Expr. Pur. 1995, 6(5), 609–618) from serotypes 14, 16, and 2 were prepared by the following standard chromatographic procedures: (1) ion exchange using Q Sepharose Fast Flow from Pharmacia; (2) affinity chromatography using Affi-Gel Blue from Biorad; and (3) sizing using Sephadex G-100 from Pharmacia. Each assay sample contained 2% DMSO, 50 mM tris pH 7.6, 1 mM EDTA, a test compound at the indicated concentration, approximately 1 μM substrate, and 50–100 nM protease. The kobs/I values were obtained from reactions initiated by addition of enzyme rather than substrate. RVP activity was measured in the fluorescence resonance energy transfer assay. The substrate was (N-terminal) DABCYL-(Gly-Arg-Ala-Val-Phe-Gln-Gly-Pro-Val-Gly)-EDANS. In the uncleaved peptide, the EDANS fluorescence was quenched by the proximal DABCYL group. When the peptide was cleaved, the quenching was relieved, and activity was measured as an increase in fluorescence signal. In the Table, unless otherwise indicated, all data are for rhinovirus 3C protease from HRV serotype-14 (produced from the infectious cDNA clone constructed by Dr. Robert Rueckert, Institute for Molecular Virology, University of Wisconsin, Madison, Wis.). The data in the column designated kobs/[I] were measured from progress curves in enzyme start experiments.
# T1 sequence (P03303 1538-1719): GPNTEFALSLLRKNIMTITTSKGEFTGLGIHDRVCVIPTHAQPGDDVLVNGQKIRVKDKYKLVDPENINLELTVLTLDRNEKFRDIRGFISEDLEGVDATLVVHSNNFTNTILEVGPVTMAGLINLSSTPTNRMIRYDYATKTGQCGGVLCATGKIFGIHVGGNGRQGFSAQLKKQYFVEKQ
row,Structure (SMILES),Protease Inhibition kobs/I [M⁻¹ s⁻¹]
1,"CCOC(=O)/C=C/[C@H](C[C@@H]1CCNC1=O)NC(=O)c1cc2ccccc2cc1NC(C)=O [Compound 22, 4S-[(3-acetylamino-naphthalene-2-carbonyl)-amino]-5-(2-oxo-pyrrolidin-3S-yl)-pent-2-enoic acid ethyl ester]",673

# Same assay, conditions: HRV-14 3C protease; progress curves, enzyme start; read-out: Protease Inhibition kobs/I
row,Structure (SMILES),kinact/KI [M⁻¹ s⁻¹]
1,"CCOC(=O)/C=C/[C@H](C[C@@H]1CCNC1=O)NC(=O)/C=C/c1ccc(OC)cc1 [Compound 16, 4S-[3-(methoxy-phenyl)-acryloylamino]-5-(2-oxo-pyrrolidin-3S-yl)-pent-2-enoic acid ethyl ester]",664
2,"CCOC(=O)/C=C/[C@H](C[C@@H]1CCNC1=O)NC(=O)c1cc2cc(Cl)ccc2[nH]1 [Compound 40, 4S-[(5-Chloro-1H-indole-2-carbonyl)-amino]-5-(2-oxo-pyrrolidin-3S-yl)-pent-2-enoic acid ethyl ester]",1270
3,"CCOC(=O)/C=C/[C@H](C[C@@H]1CCNC1=O)NC(=O)c1cc2cc(F)ccc2[nH]1 [Compound 39, 4S-[(5-Fluoro-1H-indole-2-carbonyl)-amino]-5-(2-oxo-pyrrolidin-3S-yl)-pent-2-enoic acid ethyl ester]",615
4,"CCOC(=O)/C=C/[C@H](C[C@@H]1CCNC1=O)NC(=O)Nc1cc(C)cc(C)c1 [Compound 58, 4S-[3-(3,5-dimethyl-phenyl)-ureido]-5-(2-oxo-pyrrolidin-3S-yl)-pent-2-enoic acid ethyl ester]",185
5,"CCOC(=O)/C=C/[C@H](C[C@@H]1CCNC1=O)NC(=O)C1CSC(c2ccccc2)N1C(C)=O (stereo partly drawn) [Compound 13, 4S-[(3-acetyl-2-phenyl-thiazolidine-4-carbonyl)-amino]-5-(2-oxo-pyrrolidin-3S-yl)-pent-2-enoic acid ethyl ester]",169
6,"CCOC(=O)/C=C/[C@H](C[C@@H]1CCNC1=O)NC(=O)c1cc2ccccc2cc1NC(C)=O [Compound 22, 4S-[(3-acetylamino-naphthalene-2-carbonyl)-amino]-5-(2-oxo-pyrrolidin-3S-yl)-pent-2-enoic acid ethyl ester]",581
7,"CCOC(=O)/C=C/[C@H](C[C@@H]1CCNC1=O)NC(=O)c1cncc(Br)c1 [Compound 6, 4S-[(5-bromo-pyridine-3-carbonyl)-amino]-5-(2-oxo-pyrrolidin-3S-yl)-pent-2-enoic acid ethyl ester]",79
8,"CCOC(=O)/C=C/[C@H](C[C@@H]1CCNC1=O)NC(=O)Nc1ccccc1Oc1ccccc1 [Compound 55, 5-(2-oxo-pyrrolidin-3S-yl)-4S-[3-(2-phenoxy-phenyl)-ureido]-pent-2-enoic acid ethyl ester]",200
9,"CCOC(=O)/C=C/[C@H](C[C@@H]1CCNC1=O)NC(=O)c1ccc2cc(OC)c(OC)cc2c1 [Compound 18, 4S-[(6,7-dimethoxy-naphthalene-2-carbonyl)-amino]-5-(2-oxo-pyrrolidin-3S-yl)-pent-2-enoic acid ethyl ester]",262
10,"CCOC(=O)/C=C/[C@H](C[C@@H]1CCNC1=O)NC(=O)/C=C/c1ccc(OC)c(OC)c1 [Compound 5, 4S-[3-(3,4-dimethoxy-phenyl)-acryloylamino]-5-(2-oxo-pyrrolidin-3S-yl)-pent-2-enoic acid ethyl ester]",173
11,"CCOC(=O)/C=C/[C@H](C[C@@H]1CCNC1=O)NC(=O)c1nc2ccccc2nc1O [Compound 7, 4S-[(3-hydroxyquinoxaline-2-carbonyl)-amino]-5-(2-oxopyrrolidin-3S-yl)-pent-2-enoic acid ethyl ester]",36

# Second part, the molecule after the results:
row,kinact/KI [M⁻¹ s⁻¹],Structure (SMILES)
1,570,"CCOC(=O)/C=C/[C@H](C[C@@H]1CCNC1=O)NC(=O)c1ccc2cc(O)ccc2c1 [Compound 65, 4S-[(6-hydroxy-naphthalene-2-carbonyl)-amino]-5-(2-oxo-pyrrolidin-3S-yl)-pent-2-enoic acid ethyl ester]"
2,7,"CCOC(=O)/C=C/[C@H](C[C@@H]1CCNC1=O)NC(=O)Cc1cccc(Cl)c1 [Compound 63, 4S-[2-(3-chloro-phenyl)-acetylamino]-5-(2-oxo-pyrrolidin-3S-yl)-pent-2-enoic acid ethyl ester]"
3,283,"CCOC(=O)/C=C/[C@H](C[C@@H]1CCNC1=O)NC(=O)c1cc2ccccc2[nH]1 [Compound 47, 4S-[(1H-Indole-2-carbonyl)-amino]-5-(2-oxo-pyrrolidin-3S-yl)-pent-2-enoic acid ethyl ester]"
4,315,"CCOC(=O)/C=C/[C@H](C[C@@H]1CCNC1=O)NC(=O)/C=C/c1cccc(O)c1 [Compound 17, 4S-[3-(3-hydroxy-phenyl)-acryloylamino]-5-(2-oxo-pyrrolidin-3S-yl)-pent-2-enoic acid ethyl ester]"
5,400,"CCOC(=O)/C=C/[C@H](C[C@H]1CCNC1=O)NC(=O)c1ccc2ccccc2c1 [Compound 2, 4S-[(naphthalene-2-carbonyl)-amino]-5-(2-oxo-pyrrolidin-3-R-yl)-pent-2-enoic acid ethyl ester]"
6,142,"CCOC(=O)/C=C/[C@H](C[C@@H]1CCNC1=O)NC(=O)c1cc2ccccc2cc1N [Compound 69, 4S-[(3-amino-naphthalene-2-carbonyl)-amino]-5-(2-oxo-pyrrolidin-3S-yl)-pent-2-enoic acid ethyl ester]"
7,55,"CCOC(=O)/C=C/[C@H](C[C@@H]1CCNC1=O)NC(=O)c1nc2ccccc2[nH]1 [Compound 10, 4-[(1H-benzoimidazole-2-carbonyl)-amino]-5-(2-oxo-pyrrolidin-3S-yl)-pent-2-enoic acid ethyl ester]"
8,77,"CCOC(=O)/C=C/[C@H](C[C@@H]1CCNC1=O)NC(=O)COc1cccc(OC)c1 [Compound 60, 4S-[2-(3-methoxy-phenoxy)-acetylamino]-5-(2-oxo-pyrrolidin-3S-yl)-pent-2-enoic acid ethyl ester]"
9,225,"CCOC(=O)/C=C/[C@H](C[C@@H]1CCNC1=O)NC(=O)/C=C/C(=O)Nc1c(C)cc(C)cc1C [Compound 50, 5-(2-Oxo-pyrrolidin-3S-yl)-4S-[3-(2,4,6-trimethylphenylcarbamoyl)-acryloylamino]-pent-2-enoic acid ethyl ester]"
10,103,"CCOC(=O)/C=C/[C@H](C[C@@H]1CCNC1=O)NC(=O)COc1cccc(Cl)c1 [Compound 61, 4S-[2-(3-chloro-phenoxy)-acetylamino]-5-(2-oxo-pyrrolidin-35-yl)-pent-2-enoic acid ethyl ester]"
11,272,"CCOC(=O)/C=C/[C@H](C[C@@H]1CCNC1=O)NC(=O)c1cc2cccc([N+](=O)[O-])c2[nH]1 [Compound 42, 4S-[(7-Nitro-1H-indole-2-carbonyl)-amino]-5-(2-oxo-pyrrolidin-3S-yl)-pent-2-enoic acid ethyl ester]"
12,1830,"CCOC(=O)/C=C/[C@H](C[C@@H]1CCNC1=O)NC(=O)c1cc2cc(OC)c(OCc3ccccc3)cc2[nH]1 [Compound 46, 4S-[(6-Benzyloxy-5-methoxy-1H-indole-2-carbonyl)-amino]-5-(2-oxo-pyrrolidin-3S-yl)-pent-2-enoic acid ethyl ester]"
13,6850,"CCOC(=O)/C=C/[C@H](C[C@@H]1CCNC1=O)NC(=O)/C=C/c1cc(Br)ccc1Br [Compound 64, 4S-[3-(2,5-dibromo-phenyl)-acryloylamino]-5-(2-oxo-pyrrolidin-3S-yl)-pent-2-enoic acid ethyl ester]"
14,750,"CCOC(=O)/C=C/[C@H](C[C@@H]1CCNC1=O)NC(=O)/C=C/c1ccc(Cl)cc1 [Compound 11, 4S-[3-(4-chloro-phenyl)-acryloylamino]-5-(2-oxo-pyrrolidin-3S-yl)-pent-2-enoic acid ethyl ester]"

# From patent US6989384B2, “Antipicornaviral compounds and compositions, their pharmaceutical uses, and materials for their synthesis” (Agouron Pharmaceuticals, Inc., priority 2000, dated 2006)
